Measured values from patent US20030124566A1, “5-Hydroxytryptamine transporter gene polymorphisms” (priority 2000, published 2003).
Where a name gives a salt, the structure may show the parent alone.

Tests used:
[1] = system: female human subjects with IBS (non-constipated); assay: Double-blind, placebo controlled clinical trials of alosetron for the treatment of IBS, response stratified by 5HTT genotype; assay type: in vivo; conditions: for proportion of patients achieving response (relief of IBS symptoms): relief during six weeks of twelve week treatment
Description: FIG. 1 is a graph based on data collected from female patients enrolled in clinical trials of alosetron for the treatment of IBS. The study population was comprised of non-constipated individuals with IBS. The subjects were divided into 5HTT genotypes. Of the 219 subjects, 71 (32.4%) were del/del 5HTT, 75 (34.2%) were del/ins 5HTT and 73 (33.3%) were ins/ins 5HTT. […] “Response” was defined as relief of IBS symptoms (abdominal pain and discomfort) during six weeks of a twelve week treatment study. Two hundred and nineteen subjects, received either alosetron (102 subjects) or matched placebo (117 subjects). The proportion of patients achieving response following treatment with alosetron was 68% (21/31) for del/del 5HTT, 64% (21/33) for del/ins 5HTT and 58% (22/38) for ins/ins 5HTT. The proportion of patients achieving response following treatment with placebo was 58% (23/40) for del/del 5HTT, 38% (16/42) for del/ins 5HTT and 34% (12/35) for ins/ins 5HTT.
FIG. 2 compares, among 5HTT genotypes, the percentage of alosetron-treated subjects who reported constipation. Of the 102 alosetron treated subjects, the proportion of subjects reporting constipation was 13% (4/31) for del/del 5HTT, 30% (10/33) for del/ins 5HTT and 21% (8/38) for ins/ins 5HTT.
Genetic samples were obtained from 219 female human subjects enrolled in clinical trials of alosetron for the treatment of IBS. Using PCR technology as is known in the art, an insertion/deletion genetic marker was assayed in the 5-hydroxytryptamine transporter gene (5HTT gene). The alleles were labeled as “del” (deletion) or “ins” (insertion) resulting in three possible genotypes (del/del; del/ins or ins/ins).
The subjects' response to alosetron in the clinical trial setting was reviewed and correlated with genotype. In the double-blind, placebo controlled clinical trials, subjects received 12 weeks of treatment with either alosetron or a placebo. A favorable response to alosetron was when a subject reported relief of IBS symptoms during six weeks of the twelve week trial. The incidence of various other effects, including constipation, was also recorded.
The response of subjects to treatment with alosetron in the clinical trial was stratified according to genotype.
The occurrence of constipation during alosetron treatment in the clinical trial was stratified according to genotype. […] In del/del subjects (n=31), 4 (13%) reported constipation; in del/ins subjects (n=33), 10 (30%) reported constipation; and in ins/ins subjects (n=38), 8 (21)% reported constipation (FIG. 2).

[2] = system: patients with Irritable Bowel Syndrome (IBS); conditions: double-blind, placebo controlled studies (literature); cited from earlier work

Cc1[nH]cnc1CN1CCc2c(c3ccccc3n2C)C1=O [alosetron, Alosetron hydrochloride]
proportion of subjects reporting constipation ([1]; del/del 5HTT genotype, alosetron-treated, 4/31 subjects): 13% | proportion of patients achieving response (relief of IBS symptoms) ([1]; del/del 5HTT genotype, 21/31 subjects): 68% | proportion of subjects reporting constipation ([1]; del/ins 5HTT genotype, alosetron-treated, 10/33 subjects): 30% | proportion of patients achieving response (relief of IBS symptoms) ([1]; del/ins 5HTT genotype, 21/33 subjects): 64% | relief of IBS symptoms compared with placebo ([1]; in each of the three 5HTT genotypes): more effective than placebo | proportion of subjects reporting constipation ([1]; ins/ins 5HTT genotype, alosetron-treated, 8/38 subjects): 21% | proportion of patients achieving response (relief of IBS symptoms) ([1]; ins/ins 5HTT genotype, 22/38 subjects): 58% | proportion of subjects reporting constipation ([1]; total group of subjects receiving alosetron (n=102)): 21% | effect on pain and bowel function in IBS patients [2]: reduce pain and improve bowel function
